Results published in US20230293517A1, “ANTAGONIST COMPOUNDS” (AdoRx Therapeutics Limited, priority 2020, published 2023).
pIC50, pKi: −log10 of the molar value.

Columns and labels:
[1] = biological target: human Adenosine A2b receptor (Homo sapiens (Human), UniProt P29275); assay: Adenosine receptor TR-FRET binding assay (A2b); conditions: TR-FRET, inhibition of binding of 30 nM CA200645, CHO cell membranes
In short: (§1)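 Compounds were serially diluted 1:3 in DMSO, then incubated with CHO membranes bearing Tb-tagged human receptor plus CA200645 (A2b 30 nM; A1, A2a, A3 100 nM) for 2 h at room temperature. Time-resolved FRET was read, non-specific binding subtracted using 10 μM XAC, and Ki calculated.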

[2] = biological target: human Adenosine A1 receptor (Homo sapiens (Human), UniProt P30542); assay: Adenosine receptor TR-FRET binding assay (A1); conditions: inhibition of binding of 100 nM CA200645, CHO cell membranes
human Adenosine A1 receptor, sequence (P30542 whole entry): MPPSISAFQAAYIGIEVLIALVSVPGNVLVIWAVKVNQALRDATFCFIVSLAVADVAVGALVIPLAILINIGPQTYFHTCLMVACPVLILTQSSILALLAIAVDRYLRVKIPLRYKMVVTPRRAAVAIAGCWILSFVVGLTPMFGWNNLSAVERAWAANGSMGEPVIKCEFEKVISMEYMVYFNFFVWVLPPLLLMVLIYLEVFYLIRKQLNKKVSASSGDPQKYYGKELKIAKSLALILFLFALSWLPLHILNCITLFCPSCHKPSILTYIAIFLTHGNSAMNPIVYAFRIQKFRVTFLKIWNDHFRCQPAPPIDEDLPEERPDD
In short: as §1

[3] = biological target: human Adenosine A2a receptor (Homo sapiens (Human), UniProt P29274); assay: Adenosine receptor TR-FRET binding assay (A2a); conditions: inhibition of binding of 100 nM CA200645, CHO cell membranes
human Adenosine A2a receptor, sequence (P29274 whole entry): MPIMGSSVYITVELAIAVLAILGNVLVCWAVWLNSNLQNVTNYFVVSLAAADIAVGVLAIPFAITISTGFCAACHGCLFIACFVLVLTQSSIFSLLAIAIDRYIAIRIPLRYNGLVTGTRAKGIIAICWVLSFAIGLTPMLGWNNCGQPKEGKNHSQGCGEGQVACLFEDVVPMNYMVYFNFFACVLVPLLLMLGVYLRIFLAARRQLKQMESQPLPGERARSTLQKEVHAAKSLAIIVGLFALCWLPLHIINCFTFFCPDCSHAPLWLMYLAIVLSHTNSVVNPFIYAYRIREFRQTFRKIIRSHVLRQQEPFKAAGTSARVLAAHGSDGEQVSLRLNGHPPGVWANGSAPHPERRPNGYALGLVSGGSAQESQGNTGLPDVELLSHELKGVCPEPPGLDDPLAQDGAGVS
In short: as §1

[4] = biological target: human Adenosine A3 receptor (Homo sapiens (Human), UniProt P0DMS8); assay: Adenosine receptor TR-FRET binding assay (A3); conditions: inhibition of binding of 100 nM CA200645, CHO cell membranes
human Adenosine A3 receptor, sequence (P0DMS8 whole entry): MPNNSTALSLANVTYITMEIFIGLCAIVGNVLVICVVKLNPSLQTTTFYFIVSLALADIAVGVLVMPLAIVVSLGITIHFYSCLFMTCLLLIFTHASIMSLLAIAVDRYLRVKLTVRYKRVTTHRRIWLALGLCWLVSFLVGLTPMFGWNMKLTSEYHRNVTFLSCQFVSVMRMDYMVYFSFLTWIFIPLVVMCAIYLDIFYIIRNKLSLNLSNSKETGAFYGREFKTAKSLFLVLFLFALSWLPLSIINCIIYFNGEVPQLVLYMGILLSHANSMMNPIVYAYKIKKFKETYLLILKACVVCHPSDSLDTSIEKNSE
In short: as §1

[5] = system: CD8+T cells in human whole blood; assay: Measurement of pCREB in CD8+T cells in human whole blood; assay type: cell-based; conditions: 3 μM NECA, rolipram
In short: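 Heparinised human whole blood pre-incubated 20 min at 37 °C with serially diluted A2a antagonists plus rolipram, then stimulated 60 min with 3 μM NECA (final). After fixation and red-cell lysis, white cells were permeabilized and stained for phospho-CREB and CD8; pCREB in CD8+ T cells measured by flow cytometry.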

[6] = system: human PBMCs; assay: CD3/CD28 stimulated IL-2 release NECA reversal assay in human PBMCs; assay type: cell-based; conditions: PBMC, 1 uM NECA, 24 hours, IL-2 in culture supernatant
In short: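 PBMCs from citrated healthy-donor blood plated at 50,000 cells/well on 1 ug/ml CD3 antibody with 1 ug/ml CD28 antibody, 1 uM NECA and 0.003-10 μM antagonist (final), 24 h at 37° C. Supernatant IL-2 measured by MSD immunoassay; % inhibition set against no-NECA control wells as 100%.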

[7] = system: immature monocyte-derived dendritic cells (MoDC); assay: MoDC pCREB assay; assay type: cell-based, human; conditions: Homo sapiens, Dendritic cell; pCREB in immature MoDC, 1 μM NECA, rolipram
Experimental: Monocytes are isolated from human whole blood using CD14 microbeads (Miltenyi Biotec 130-050-201) and differentiated to immature monocyte-derived dendritic cells (MoDC) by culture for 5 days in Mo-DC Differentiation Medium (Miltenyi Biotec 130-094-812). MoDCs are seeded into fresh medium into U bottomed 96 well culture plates and pre-incubated at 37° C. with serial dilutions of A2A/B antagonists for 15 min. At the same time the cells are co-incubated with the phosphodiesterase inhibitor rolipram (final concentration of 20 µM) to amplify the subsequent pCREB response. Adenosine receptor agonist NECA is then added at 1 μM final concentration, leading to an increase in CREB phosphorylation. Following a 45 min incubation at 37° C., the cells are fixed, permeabilized and stained with directly conjugated fluorescent antibodies to phospho-CREB (Alexa Fluor 488), CD209 (PerCP-Cy5.5) and CD86 (APC). Samples are analysed by FACS to measure fluorescence in corresponding channels, and also forward and Side scatter. The population of CD209+/CD86− low cells corresponding to immature dendritic cells is gated for analysis of pCREB levels.
Approximately 5% of the analysed cells are positive for detection of pCREB in the absence of agonist stimulation, representing the background signalling of all pathways upstream of CREB. Following NECA stimulation this is increased to ˜80% pCREB+ve, and this increase is essentially fully reversible by A2B or dual A2A/B antagonists.
IC50 is represented as the point of inflection of a sigmoidal curve

human Adenosine A2b receptor, sequence (P29275 whole entry): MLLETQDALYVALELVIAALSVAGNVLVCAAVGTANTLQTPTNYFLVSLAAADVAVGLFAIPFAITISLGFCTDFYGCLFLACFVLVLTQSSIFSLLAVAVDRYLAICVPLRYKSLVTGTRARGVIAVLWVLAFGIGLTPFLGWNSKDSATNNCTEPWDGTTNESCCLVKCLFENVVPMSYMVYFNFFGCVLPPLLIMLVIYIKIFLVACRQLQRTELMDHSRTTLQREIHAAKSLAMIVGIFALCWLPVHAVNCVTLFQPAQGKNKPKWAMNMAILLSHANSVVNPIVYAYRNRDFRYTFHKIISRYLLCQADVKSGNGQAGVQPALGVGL

Row | pKi [1] | pKi [2] | pKi [3] | pKi [4] | pIC50 [5] | pIC50 [7] | Compound | pIC50 [6]
1 | 8.62 | 7.62 | 9.43 | 6.21 | 8.00 | 8.10 | Cc1cc(-c2sc(NC(=O)N3CCC(C#N)(C#N)CC3)nc2-c2cccc(C#N)c2)cc(CO)n1 [Example 9.8] | 9.15
2 | 8.08 | 8.22 | 9.55 | 5.82 | 8.00 | 7.26 | Cc1cc(-c2sc(NC(=O)N3CC4(COC4)C3)nc2-c2cccc(C#N)c2)cc(C(C)(C)O)n1 [Example 12.2, N-[4-(3-Cyanophenyl)-5-[2-(1-hydroxy-1-methyl-ethyl)-6-methyl-4-pyridyl]thiazol-2-yl]-2-oxa-6-azaspiro[3.3]heptane-6-carboxamide] | 9.40
3 | 8.80 | 7.38 | 9.80 | 6.01 | 7.00 | 7.89 | Cc1cc(-c2sc(NC(=O)N3CC4(COC4)C3)nc2-c2cccc(C#N)c2)cc(CF)n1 [Example 16.6] | 8.59
4 | 8.80 | 7.89 | 9.89 | 6.32 | 7.22 | 7.85 | Cc1cc(-c2sc(NC(=O)N3CC4(COC4)C3)nc2-c2cccc(C#N)c2)cc(C2CC2)n1 [Example 16.7] | 9.05
5 | 9.00 | 7.48 | 9.85 | 6.57 | 7.40 | 8.40 | Cc1cc(-c2sc(NC(=O)N3CC[C@](C)(C#N)C3)nc2-c2cccc(C#N)c2)cc(C)n1 [Example 27b, (3S)-3-cyano-N-[4-(3-cyanophenyl)-5-(2,6-dimethyl-4-pyridyl)thiazol-2-yl]-3-methyl-pyrrolidine-1-carboxamide] | 9.00

The remaining lines, values behind:

Row | Compound | pKi [1] | pKi [2] | pKi [3] | pKi [4] | pIC50 [5] | pIC50 [7] | pIC50 [6]
6 | Cc1cc(-c2sc(NC(=O)N3CC[C@@H](C(C)(C)O)C3)nc2-c2cccc(C#N)c2)cc(C)n1 [Example 6.36, (3R)-N-[4-(3-Cyanophenyl)-5-(2,6-dimethyl-4-pyridyl)thiazol-2-yl]-3-(1-hydroxy-1-methyl-ethyl)pyrrolidine-1-carboxamide] | 8.38 | 6.88 | 9.06 | 6.42 | 7.05 | 7.80 | 8.38
7 | Cc1cc(-c2sc(NC(=O)N3CC4(C3)CS(=O)(=O)C4)nc2-c2cccc(C#N)c2)cc(C)n1 [Example 6.46, N-[4-(3-Cyanophenyl)-5-(2,6-dimethyl-4-pyridyl)thiazol-2-yl]-2,2-dioxo-2λ^∧{6}-thia-6-azaspiro[3.3]heptane-6-carboxamide] | 8.72 | 6.95 | 8.69 | 6.63 | 6.44 | 7.42 | 7.82
8 | Cc1cc(-c2sc(NC(=O)N3CC4(CCOC4)C3)nc2-c2cccc(C#N)c2)cc(C)n1 [Example 6.53, N-[4-(3-Cyanophenyl)-5-(2,6-dimethyl-4-pyridyl)thiazol-2-yl]-6-oxa-2-azaspiro[3.4]octane-2-carboxamide] | 8.80 | 6.96 | 9.57 | 6.18 | 6.89 | 7.40 | 8.60
9 | Cc1cc(-c2sc(NC(=O)N3CCOC[C@H]3C)nc2-c2cccc(C#N)c2)cc(C)n1 [Example 6.74, (3R)-N-[4-(3-Cyanophenyl)-5-(2,6-dimethyl-4-pyridyl)thiazol-2-yl]-3-methyl-morpholine-4-carboxamide] | 8.72 | 7.64 | 9.20 | 6.66 | 6.62 | 9.00 | 8.25
10 | Cc1cc(-c2sc(NC(=O)N3CCC4(COC4)C3)nc2-c2cccc(C#N)c2)cc(C)n1 [Example 6.81, N-[4-(3-Cyanophenyl)-5-(2,6-dimethyl-4-pyridyl)thiazol-2-yl]-2-oxa-7-azaspiro[3.4]octane-7-carboxamide] | 8.64 | 7.31 | 9.33 | 6.53 | 6.64 | 7.72 | 8.12
11 | Cc1cc(-c2sc(NC(=O)N3CC4(CCN(C)C4=O)C3)nc2-c2cccc(C#N)c2)cc(C)n1 [Example 6.92, N-[4-(3-Cyanophenyl)-5-(2,6-dimethyl-4-pyridyl)thiazol-2-yl]-6-methyl-5-oxo-2,6-diazaspiro[3.4]octane-2-carboxamide] | 8.59 | 7.18 | 9.41 | 7.01 | 7.52 | 7.96 | 8.92
12 | Cc1cc(-c2sc(NC(=O)N3CC4(CCO4)C3)nc2-c2cccc(C#N)c2)cc(C)n1 [Example 6.93, N-[4-(3-Cyanophenyl)-5-(2,6-dimethyl-4-pyridyl)thiazol-2-yl]-1-oxa-6-azaspiro[3.3]heptane-6-carboxamide] | 8.82 | 7.36 | 9.51 | 6.79 | 7.30 | 8.05 | 8.89
13 | Cc1cc(-c2sc(NC(=O)N3CC4(COC4)C3)nc2-c2cccc(C#N)c2)cc(C(F)(F)F)n1 [Example 6.99, N-[4-(3-Cyanophenyl)-5-[2-methyl-6-(trifluoromethyl)-4-pyridyl]thiazol-2-yl]-2-oxa-6-azaspiro[3.3]heptane-6-carboxamide] | 9.15 | 7.85 | 9.89 | 7.11 | 7.40 | 8.10 | 9.15
14 | Cc1cc(-c2sc(NC(=O)N3CCC(C)(C#N)CC3)nc2-c2cccc(C#N)c2)cc(CO)n1 [Example 24, 4-Cyano-N-[4-(3-cyanophenyl)-5-[2-(hydroxymethyl)-6-methyl-4-pyridyl]thiazol-2-yl]-4-methyl-piperidine-1-carboxamide] | 8.57 | 7.15 | 9.62 | 6.17 | 7.70 | 7.68 | 8.80
15 | [2H]C([2H])([2H])c1cc(-c2sc(NC(=O)N3CCC(C)(C#N)CC3)nc2-c2cccc(C#N)c2)cc(C([2H])([2H])[2H])n1 [Example 28, N-[5-[2,6-Bis(trideuteriomethyl)-4-pyridyl]-4-(3-cyanophenyl)thiazol-2-yl]-4-cyano-4-methyl-piperidine-1-carboxamide] | 9.00 | 7.52 | 10.05 | 6.42 | 7.22 | 8.05 | 9.40
